In ChEMBL document CHEMBL1147669, “Synthesis of biphenyltrienes as probes for beta-amyloid plaques” (J Med Chem, 2006):

Key:
[1] = biological target: T1, Amyloid-beta precursor protein (Homo sapiens, UniProt P05067); assay: Displacement of [125I]2-(4'-dimethylaminophenyl)-6-iodoimidazo[1,2-a]pyridine from beta amyloid peptide in brain tissue at 50 uL; assay type: tissue-based
[2] = biological target: T1, Amyloid-beta precursor protein; assay: Displacement of [125I](E,E)-1-iodo-2,5-bis-(3-hydroxycarbonyl-4-methoxy)styrylbenzene from beta amyloid peptide in brain tissue at 50 uL; assay type: tissue-based

T1 sequence (P05067 whole entry): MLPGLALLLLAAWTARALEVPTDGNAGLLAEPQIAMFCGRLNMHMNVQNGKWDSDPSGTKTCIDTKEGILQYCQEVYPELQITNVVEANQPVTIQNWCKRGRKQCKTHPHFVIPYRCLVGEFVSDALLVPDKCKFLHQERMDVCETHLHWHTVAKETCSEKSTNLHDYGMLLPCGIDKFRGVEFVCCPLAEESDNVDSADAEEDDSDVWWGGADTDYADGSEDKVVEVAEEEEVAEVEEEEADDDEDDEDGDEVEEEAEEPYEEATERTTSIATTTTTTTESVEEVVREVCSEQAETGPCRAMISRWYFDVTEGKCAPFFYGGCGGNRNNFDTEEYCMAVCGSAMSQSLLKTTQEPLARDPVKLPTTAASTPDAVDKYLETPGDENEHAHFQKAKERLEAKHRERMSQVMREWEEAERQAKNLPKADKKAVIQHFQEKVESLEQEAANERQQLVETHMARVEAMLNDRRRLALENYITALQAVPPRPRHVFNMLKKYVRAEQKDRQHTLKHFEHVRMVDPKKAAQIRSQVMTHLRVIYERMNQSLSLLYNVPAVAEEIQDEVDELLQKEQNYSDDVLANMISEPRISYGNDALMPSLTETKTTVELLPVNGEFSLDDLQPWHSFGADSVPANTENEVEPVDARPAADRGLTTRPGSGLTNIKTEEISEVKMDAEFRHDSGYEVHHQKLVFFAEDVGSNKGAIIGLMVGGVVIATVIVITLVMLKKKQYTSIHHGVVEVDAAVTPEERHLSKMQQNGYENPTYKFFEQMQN

Row | Structure (SMILES) | Ki [1] | Ki [2]
1 | O=[N+]([O-])c1ccc(/C=C/C=C/C=C/c2ccc([N+](=O)[O-])cc2)cc1 | 500 nM | > 4000 nM
2 | Nc1ccc(/C=C/C=C/C=C/c2ccc(N)cc2)cc1 | 9 nM | 375 nM
3 | CNc1ccc(/C=C/C=C/C=C/c2ccc(NC)cc2)cc1 | 7.5 nM | 122 nM
4 | COc1ccc(/C=C/c2ccc(/C=C/c3ccc(OC)c(C(=O)O)c3)c(I)c2)cc1C(=O)O | > 1000 nM | 5.1 nM
5 | CN(C)c1ccc(/C=C/C=C/C=C/c2ccc(N(C)C)cc2)cc1 | 837 nM | > 7000 nM
6 | Oc1ccc(/C=C/C=C/C=C/c2ccc(O)cc2)cc1 | 9 nM | 150 nM

Continued, values first:

Row | Ki [1] | Ki [2] | Structure (SMILES)
7 | 12 nM | 217 nM | Nc1ccc(/C=C/C=C/C=C/c2ccc(NCCF)cc2)cc1
8 | 152 nM | > 8000 nM | CC(=C(C#N)C#N)c1ccc2cc(N(C)CCF)ccc2c1
9 | > 4000 nM | > 8000 nM | COc1ccc(/C=C/C=C/C=C/c2ccc(OC)cc2)cc1
